Assay results taken from ChEMBL document CHEMBL5058564, “EUbOPEN Chemogenomics Library 2 (Incucyte)” (2022).

How the values were obtained:
Type in all cases: toxicity, cell-based
HEK-293T = assay: Incucyte cell viability with HEK293T; conditions: human, 10 µM, compound concentration 10 uM
Fibroblast = assay: Incucyte cell viability with human fibroblast; conditions: 10 µM, compound concentration 10 uM
U2OS = assay: Incucyte cell viability with U2OS; conditions: human, 10 µM, compound concentration 10 uM
[1] = 0 h, replicate number 1, timepoint 0 hours
[2] = 12 h, replicate number 1, timepoint 12 hours
[3] = 12 h, replicate number 2, timepoint 12 hours
[4] = 18 h, replicate number 1, timepoint 18 hours
[5] = 18 h, replicate number 2, timepoint 18 hours
[6] = 24 h, replicate number 1, timepoint 24 hours
[7] = 24 h, replicate number 2, timepoint 24 hours
[8] = 0 h, replicate number 2, timepoint 0 hours
[9] = 6 h, replicate number 1, timepoint 6 hours
[10] = 6 h, replicate number 2, timepoint 6 hours
Also: unitless GR value; below 1 slowed growth and below 0 cell loss.

| Structure (SMILES) | Growth Rate (HEK-293T; [1]) | Growth Rate (HEK-293T; [2]) | Growth Rate (HEK-293T; [4]) | Growth Rate (HEK-293T; [5]) | Growth Rate (HEK-293T; [6]) | Growth Rate (HEK-293T; [7]) | Growth Rate (Fibroblast; [1]) | Growth Rate (Fibroblast; [8]) | Growth Rate (Fibroblast; [2]) | Growth Rate (Fibroblast; [4]) | Growth Rate (Fibroblast; [6]) | Growth Rate (U2OS; [1]) | Growth Rate (U2OS; [8]) | Growth Rate (HEK-293T; [9]) | Growth Rate (Fibroblast; [9]) | Growth Rate (U2OS; [6]) | Growth Rate (HEK-293T; [8]) | Growth Rate (U2OS; [4]) | other results |
| --- | --- | --- | --- | --- | --- | --- | --- | --- | --- | --- | --- | --- | --- | --- | --- | --- | --- | --- | --- |
| N#Cc1cc2c(OCC(O)CN3CCN(C(c4ccccc4)c4ccccc4)CC3)cccc2[nH]1 (racemic) | 0.77 | 0.54 | 0.32 | 0.26 | 0.27 | 0.29 | -0.11 | 0.94 | 0.52 | -0.05 | 0.24 | -0.56 | -1 |  |  |  |  |  | Growth Rate (HEK-293T; [3]): 0.62; Growth Rate (Fibroblast; [5]): 0.91 |
| CCCn1c(=O)c2[nH]c(C3CCCC3)nc2n(CCC)c1=O [1,3-DIPROPYL-8-CYCLOPENTYLXANTHINE [DPCPX]] | 0.58 | 0.84 | 0.81 |  | 0.72 |  | 0.19 | 0.38 | 0.03 | -0.16 | -0.1 | -0.53 | -1 | 0.57 | -0.31 |  |  |  | Growth Rate (HEK-293T; [10]): 0.79; Growth Rate (U2OS; [5]): 0.95 |
| CCCCC/C=C\C/C=C\C/C=C\C/C=C\CCCC(=O)OC(CO)CO [2-ARACHIDONOYLGLYCEROL] |  | 0.72 | 0.64 | 0.69 | 0.67 | 0.75 |  |  |  |  | 0.93 |  | 0.65 | 0.94 |  | 0.81 |  |  | Growth Rate (HEK-293T; [3]): 0.51; Growth Rate (U2OS; [3]): 0.9; Growth Rate (U2OS; [7]): 0.99 |
| CCNC(=O)c1cc2c(-c3cc(C(C)(C)O)ccc3Oc3c(C)cc(F)cc3C)cn(C)c(=O)c2[nH]1 [ABBV-744] | 0.5 |  | 0.82 |  | 0.69 | 0.71 | 0.23 |  | 0.68 | 0.87 | 0.75 |  |  |  | 0.41 | -0.17 | 0.16 |  | Growth Rate (Fibroblast; [10]): 0.71; Growth Rate (Fibroblast; [7]): 0.87 |
| Nc1ncnc2c1ncn2[C@@H]1O[C@H](CO)[C@@H](O)[C@H]1O [ADENOSINE] | -0.6 |  |  | 0.98 | 0.79 |  | 0.25 | 0.19 | 0.59 | 0.7 | 0.58 | 0.54 |  |  | -0.04 |  | -0.36 | 0.77 | Growth Rate (U2OS; [9]): 0.47; Growth Rate (U2OS; [2]): 0.84 |
| COc1c(Nc2ccc(S(C)(=O)=O)nc2C)ncnc1OC1CCN(C(=O)OC(C)C)CC1 [ADP-597] |  | 0.45 | 0.51 |  | 0.74 |  |  | 0.94 | 0.53 | 0.34 | 0.88 |  |  | 0.29 | 0.72 | 1 |  | 0.98 | Growth Rate (Fibroblast; [3]): 0.7 |
| COc1cc2nc(N(C)CCCNC(=O)C3CCCO3)nc(N)c2cc1OC.Cl (configuration not stated) [ALFUZOSIN HYDROCHLORIDE] | 0.21 |  | 0.99 |  | 0.99 | 0.96 | 0.72 | 0.06 |  |  | 0.72 | -0.55 |  | 0.54 |  | 0.81 | 0.19 | 0.72 | Growth Rate (Fibroblast; [10]): 0.11; Growth Rate (Fibroblast; [3]): 0.51; Growth Rate (Fibroblast; [5]): 0.61; Growth Rate (Fibroblast; [7]): 0.47; Growth Rate (U2OS; [9]): 0.24; Growth Rate (U2OS; [10]): 0.85; Growth Rate (U2OS; [2]): 0.43; Growth Rate (U2OS; [3]): 0.97; Growth Rate (U2OS; [5]): 0.93 |
